Measured values taken from article PMC3933419, “Synthesis and Properties of a Selective Inhibitor of Homeodomain–Interacting Protein Kinase 2 (HIPK2)” (PLoS ONE, 2014).
pIC50: −log10 of the molar value. Read-outs that look alike come from different tables or passages of the source.

What was measured:
CK2 [1] = molecular target: T1, CK2 (Rattus norvegicus, UniProt P19139); experiment: CK2 phosphorylation assay; assay type: biochemical; conditions: 20 µM ATP
T1 construct: Native CK2 and CK1 were purified from rat liver; from tissue; host or cells: rat liver
Description: (§1) Native CK2 and CK1 were purified from rat liver.
(§2) PIM1, CK2, CK1 phosphorylation assays were performed following similar procedures used for HIPK2 except that preincubation was omitted. In detail, PIM1 activity was determined at 100 µM ATP concentration and in the presence of 30 µM synthetic peptide substrate […]. CK2 and CK1 activities were assayed in a buffer containing 50 mM Tris/HCl (pH 7.5), 100 mM NaCl, 12 mM MgCl2, 100 µM specific peptide substrate […] (for CK2), or 200 µM […] (for CK1) and 20 µM [γ-^33P]ATP (500–1000 c.p.m./pmol).

HIPK2 [2] = molecular target: T2, HIPK2 (Homo sapiens, UniProt Q9H2X6); experiment: HIPK2 kinase inhibition assay (33P-ATP, peptide […]); assay type: biochemical
T2 construct: The source of HIPK2 and of all of the other protein kinases used for specificity assays is as described elsewhere
Description: The source of HIPK2 and of all of the other protein kinases used for specificity assays is as described elsewhere. […] The reaction was stopped by addition of 5 μl of 0.5 M orthophosphoric acid before spotting aliquots onto phosphocellulose filters. Filters were washed in 75 mM phosphoric acid (5-10 ml/each) four times and then once in methanol and dried before counting.

CK1 [3] = experiment: CK1 phosphorylation assay; assay type: biochemical, rat; conditions: 20 µM ATP
Description: as §1, §2

PIM1 [4] = molecular target: T3, PIM1 (Homo sapiens, UniProt P11309); experiment: PIM1 phosphorylation assay; assay type: biochemical; conditions: 100 µM ATP
T3 construct: The source of HIPK2 and of all of the other protein kinases used for specificity assays is as described elsewhere
Description: as §2

endogenous HIPK2 = molecular target: T4, endogenous HIPK2 (Homo sapiens, UniProt Q9H2X6); experiment: Activity of HIPK2 immunoprecipitated from treated HepG2 cells; assay type: cell-based; conditions: HepG2 cells, increasing concentrations; immunoprecipitated HIPK2
T4 construct: endogenous in cells; host or cells: HepG2
Description: HepG2 cells (human hepatocellular carcinoma) were cultured in Dulbecco's modified Eagle's medium (DMEM; Sigma) supplemented with 10% fetal calf serum, 2 mM L-glutamine, 100 unit/ml penicillin and 100 µg/ml streptomycin; CEM cells (human T lymphoblastoid cells) were cultured n RPMI-1640 (Sigma) with the same supplements. Cells were cultured in an atmosphere containing 5% CO2, at 37°C. Treatments with TBID were performed in the same medium but with 1% fetal calf serum; control cells were treated with the solvent (DMSO). Total cell lysates were prepared as in [29].
Alternatively, HIPK2 was immunoprecipitated with 2.5 µl anti-HIPK2 (Epitomics) from 350 µg of total lysate proteins deriving from HepG2 cells either treated or not with TBID following a protocol elsewhere described. An aspecific antibody was used as negative control. Immunoprecipitated HIPK2 activity was measured towards the specific peptide substrate ([…]) at 1.6 mM concentration, for 10 min at 30°C, under the same conditions described above for the in vitro kinase assay. Peptide radioactivity was measured after sample spotting on phospho-cellulose paper, washing and scintillation counting, as in [30], while the amount of HIPK2 immunoprecipitated was evaluated by WB.

HIPK2 [5] = molecular target: T2, HIPK2; set-up: method as in PMID 17850214; conditions: 1 µM concentration; panel of 71 protein kinases; ref [9]; cited from earlier work
[6] = tested on: panel of 71 protein kinases; conditions: 1 µM concentration, ref [9]; cited from earlier work
HIPK2 [7] = molecular target: T2, HIPK2; set-up: method as in PMID 18588507; conditions: TBB and TBI values; ref [19]; cited from earlier work
CK1 [8] = tested on: CK1; set-up: method as in PMID 18588507; conditions: TBB and TBI values; ref [19]; cited from earlier work
PIM1 [9] = molecular target: T3, PIM1; set-up: method as in PMID 18588507; conditions: TBB and TBI values; ref [19]; cited from earlier work
CK2 [10] = molecular target: T1, CK2; set-up: method as in PMID 18588507; conditions: read-out: IC50 for CK2; TBB and TBI values; ref [19]; cited from earlier work
70 PKs [11] = tested on: 70 PKs; set-up: method as in PMID 21513497; conditions: 10 µM TBI; ref [20]; cited from earlier work
70 PKs [12] = experiment: Selectivity parameters (Lorenz curve, Gini coefficient, hit rate) of TBI; assay type: biochemical; conditions: 10 µM, from data published in ref [19]
Description: Lorenz curves were derived from the selectivity data. Gini coefficients and hit rates (expressing the percent of kinases inhibited >50% by a given compound) were calculated as described in [25].

T2 sequence (Q9H2X6 whole entry): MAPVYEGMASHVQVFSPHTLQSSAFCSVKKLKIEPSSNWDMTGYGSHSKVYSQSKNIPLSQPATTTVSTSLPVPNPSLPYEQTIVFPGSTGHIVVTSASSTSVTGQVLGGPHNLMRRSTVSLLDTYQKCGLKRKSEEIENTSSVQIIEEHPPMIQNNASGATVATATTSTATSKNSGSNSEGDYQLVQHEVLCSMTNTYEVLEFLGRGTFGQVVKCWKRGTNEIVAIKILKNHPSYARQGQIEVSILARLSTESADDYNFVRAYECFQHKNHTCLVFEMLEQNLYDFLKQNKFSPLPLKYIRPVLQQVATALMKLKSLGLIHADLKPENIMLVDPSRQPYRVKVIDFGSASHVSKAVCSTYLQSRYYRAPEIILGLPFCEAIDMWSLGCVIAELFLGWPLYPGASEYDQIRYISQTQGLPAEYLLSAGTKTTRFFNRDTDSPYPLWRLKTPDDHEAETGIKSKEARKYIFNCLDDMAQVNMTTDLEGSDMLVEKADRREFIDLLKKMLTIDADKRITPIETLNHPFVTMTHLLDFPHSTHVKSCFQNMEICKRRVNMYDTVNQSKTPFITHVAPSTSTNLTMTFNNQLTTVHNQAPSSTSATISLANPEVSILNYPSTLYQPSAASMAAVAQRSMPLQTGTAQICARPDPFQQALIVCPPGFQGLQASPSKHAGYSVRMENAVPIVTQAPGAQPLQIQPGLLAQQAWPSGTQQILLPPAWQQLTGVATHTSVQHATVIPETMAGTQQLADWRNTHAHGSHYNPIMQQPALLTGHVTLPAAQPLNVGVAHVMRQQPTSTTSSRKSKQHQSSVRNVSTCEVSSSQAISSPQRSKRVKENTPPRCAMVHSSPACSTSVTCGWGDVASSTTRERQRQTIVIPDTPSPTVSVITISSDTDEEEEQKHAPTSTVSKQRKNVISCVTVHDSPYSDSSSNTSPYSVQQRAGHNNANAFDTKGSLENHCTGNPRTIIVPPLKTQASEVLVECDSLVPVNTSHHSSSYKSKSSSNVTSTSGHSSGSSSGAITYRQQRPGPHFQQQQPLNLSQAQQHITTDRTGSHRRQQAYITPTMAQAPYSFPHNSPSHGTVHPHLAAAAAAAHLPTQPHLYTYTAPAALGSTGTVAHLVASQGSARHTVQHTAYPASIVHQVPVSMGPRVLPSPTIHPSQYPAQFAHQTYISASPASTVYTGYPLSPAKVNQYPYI
T1 sequence (P19139 whole entry): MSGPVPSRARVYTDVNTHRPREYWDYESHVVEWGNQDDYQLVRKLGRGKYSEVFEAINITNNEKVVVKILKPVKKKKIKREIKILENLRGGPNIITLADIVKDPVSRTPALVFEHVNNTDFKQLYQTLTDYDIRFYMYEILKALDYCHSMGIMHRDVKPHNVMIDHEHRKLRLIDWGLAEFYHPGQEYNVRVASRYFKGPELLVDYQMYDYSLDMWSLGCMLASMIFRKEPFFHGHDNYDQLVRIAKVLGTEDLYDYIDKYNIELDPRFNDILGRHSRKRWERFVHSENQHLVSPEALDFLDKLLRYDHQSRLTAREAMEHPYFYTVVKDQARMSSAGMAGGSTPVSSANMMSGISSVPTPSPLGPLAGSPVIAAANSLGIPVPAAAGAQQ
T1 sequence (P67874 whole entry partner): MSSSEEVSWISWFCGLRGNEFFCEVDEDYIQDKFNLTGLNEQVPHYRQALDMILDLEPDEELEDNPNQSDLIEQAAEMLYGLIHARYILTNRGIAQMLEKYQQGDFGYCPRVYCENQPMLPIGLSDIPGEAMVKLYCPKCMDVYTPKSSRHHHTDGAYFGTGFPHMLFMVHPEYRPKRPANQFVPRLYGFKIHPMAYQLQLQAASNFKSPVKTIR
T3 sequence (P11309 whole entry, species assumed): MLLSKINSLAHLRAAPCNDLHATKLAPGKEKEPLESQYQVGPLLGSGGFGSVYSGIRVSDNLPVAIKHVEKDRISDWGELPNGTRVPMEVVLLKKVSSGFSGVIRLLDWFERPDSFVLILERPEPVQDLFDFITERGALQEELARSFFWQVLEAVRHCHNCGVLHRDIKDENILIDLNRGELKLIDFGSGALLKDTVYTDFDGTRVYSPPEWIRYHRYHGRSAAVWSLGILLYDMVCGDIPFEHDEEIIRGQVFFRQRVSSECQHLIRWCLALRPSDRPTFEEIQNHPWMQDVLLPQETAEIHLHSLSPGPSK
T4 sequence (Q9H2X6 whole entry): as the sequence (Q9H2X6 whole entry) above

O=C1c2c(Br)c(Br)c(Br)c(Br)c2C(=O)N1c1nccs1 [5b, 4,5,6,7-Tetrabromo-2-(thiazol-2-yl)isoindoline-1,3-dione]
pIC50 (CK2 [1]): 4.80
pIC50 (HIPK2 [2]; 20 µM ATP, in vitro): 6.14
melting point: 228 to 232 °C
pIC50 (CK1 [3]): 5.03
pIC50 (PIM1 [4]): 4.40

O=C1c2c(Br)c(Br)c(Br)c(Br)c2C(=O)N1c1nncs1 [5c, 4,5,6,7-Tetrabromo-2-(1,3,4-thiadiazol-2-yl)isoindoline-1,3-dione]
pIC50 (CK2 [1]): 4.62
pIC50 (HIPK2 [2]; 20 µM ATP, in vitro): 5.59
melting point: 310 to 311 °C
pIC50 (CK1 [3]): < 4.40
pIC50 (PIM1 [4]): < 4.40

O=C1c2c(Br)c(Br)c(Br)c(Br)c2C(=O)N1c1ncns1 [5d, 4,5,6,7-Tetrabromo-2-(1,2,4-thiadiazol-5-yl)isoindoline-1,3-dione]
pIC50 (CK2 [1]): 4.46
pIC50 (HIPK2 [2]; 20 µM ATP, in vitro): 5.60
melting point: 325 to 326 °C
pIC50 (CK1 [3]): < 4.40
pIC50 (PIM1 [4]): < 4.40

O=C1c2c(Br)c(Br)c(Br)c(Br)c2C(=O)N1c1ccn[nH]1 [5e, 4,5,6,7-Tetrabromo-2-(1H-pyrazol-5-yl)isoindoline-1,3-dione]
pIC50 (CK2 [1]): 4.64
pIC50 (HIPK2 [2]; 20 µM ATP, in vitro): < 4.40
melting point: 333 to 334 °C (dec.)
endogenous HIPK2 activity upon cell treatment (endogenous HIPK2): not
pIC50 (CK1 [3]): < 4.40
pIC50 (PIM1 [4]): < 4.40

Cc1cc(N2C(=O)c3c(Br)c(Br)c(Br)c(Br)c3C2=O)[nH]n1 [5f, 4,5,6,7-Tetrabromo-2-(3-methyl-1H-pyrazol-5-yl)isoindoline-1,3-dione]
pIC50 (CK2 [1]): < 4.40
pIC50 (HIPK2 [2]; 20 µM ATP, in vitro): < 4.40
melting point: 331 to 332 °C
pIC50 (CK1 [3]): < 4.40
pIC50 (PIM1 [4]): < 4.40

O=C1c2c(Br)c(Br)c(Br)c(Br)c2C(=O)N1c1ncn[nH]1 [5g, 4,5,6,7-Tetrabromo-2-(1H-1,2,4-triazol-5-yl)isoindoline-1,3-dione]
pIC50 (CK2 [1]): 4.60
pIC50 (HIPK2 [2]; 20 µM ATP, in vitro): 4.64
melting point: > 360 °C
pIC50 (CK1 [3]): < 4.40
pIC50 (PIM1 [4]): < 4.40

O=C1c2c(Br)c(Br)c(Br)c(Br)c2C(=O)N1c1ccon1 [5h, 4,5,6,7-Tetrabromo-2-(isoxazol-3-yl)isoindoline-1,3-dione]
pIC50 (CK2 [1]): < 4.40
pIC50 (HIPK2 [2]; 20 µM ATP, in vitro): 4.63
melting point: 290 to 293 °C
pIC50 (CK1 [3]): < 4.40
pIC50 (PIM1 [4]): < 4.40

O=C1c2c(Br)c(Br)c(Br)c(Br)c2C(=O)N1c1cnccn1 [5i, 4,5,6,7-Tetrabromo-2-(pyrazin-2-yl)isoindoline-1,3-dione]
pIC50 (CK2 [1]): < 4.40
pIC50 (HIPK2 [2]; 20 µM ATP, in vitro): 5.44
melting point: 272 to 275 °C
pIC50 (CK1 [3]): < 4.40
pIC50 (PIM1 [4]): < 4.40

C[S+]([O-])c1ccc(-c2nc(-c3ccncc3)c(-c3ccc(F)cc3)[nH]2)cc1 (stereo not drawn) [SB203580]
inhibition of HIPK2 (HIPK2 [5]): 14%
effect on HIPK2 activity (HIPK2 [2]; up to 40 µM concentration): not appreciably affecting
number of protein kinases inhibited >60% [6]: 6

Brc1c(Br)c(Br)c2[nH]nnc2c1Br [TBB, 4,5,6,7-tetrabromobenzotriazole]
pIC50 (HIPK2 [7]): 5.28
pIC50 (CK1 [8]): < 4.40
pIC50 (PIM1 [9]): 5.98

Brc1c(Br)c(Br)c2[nH]cnc2c1Br [TBI]
pIC50 (CK2 [10]): 6.22
pIC50 (HIPK2 [2]; TBI value given in the text): 6.00
pIC50 (HIPK2 [7]): 6.15
pIC50 (CK1 [8]): 4.82
number of kinases inhibited >90% (70 PKs [11]): 10
pIC50 (PIM1 [9]): 6.94
Gini coefficient (70 PKs [12]): 0.310
